From ChEMBL document CHEMBL5465560, “Selectivity Literature for EUbOPEN Chemogenomic Library” (2024)
One block for each compound: values may come before it.

Experiments:
[1] = molecular target: Sodium channel protein type 2 subunit alpha (Homo sapiens) (UniProt Q99250); assay: Selectivity interaction (Eurofins CEREP Diversity Profile (receptors and ion channels)) EUB0000279b SCN2A; conditions: at 10 µM
[2] = molecular target: CDK4/Cyclin D3 (Homo sapiens) (UniProt P11802+P30281); assay: (§1) Selectivity interaction (KinomeScan (DiscoverX)) EUB0000666a CDK4; assay type: protein-complex assay; conditions: at 10 µM
[3] = molecular target: Cyclin-dependent kinase 4/cyclin D1 (Homo sapiens) (UniProt P11802+P24385); assay: as §1; assay type: protein-complex assay; conditions: at 10 µM
[4] = molecular target: Phosphatidylinositol 4,5-bisphosphate 3-kinase catalytic subunit gamma isoform (Homo sapiens) (UniProt P48736); assay: Selectivity interaction (Kinase panel (literature)) EUB0001199aCl PIK3CG; conditions: at 1 µM
Chain of Phosphatidylinositol 4,5-bisphosphate 3-kinase catalytic subunit gamma isoform (Homo sapiens) (P48736 whole entry, looked up, canonical isoform): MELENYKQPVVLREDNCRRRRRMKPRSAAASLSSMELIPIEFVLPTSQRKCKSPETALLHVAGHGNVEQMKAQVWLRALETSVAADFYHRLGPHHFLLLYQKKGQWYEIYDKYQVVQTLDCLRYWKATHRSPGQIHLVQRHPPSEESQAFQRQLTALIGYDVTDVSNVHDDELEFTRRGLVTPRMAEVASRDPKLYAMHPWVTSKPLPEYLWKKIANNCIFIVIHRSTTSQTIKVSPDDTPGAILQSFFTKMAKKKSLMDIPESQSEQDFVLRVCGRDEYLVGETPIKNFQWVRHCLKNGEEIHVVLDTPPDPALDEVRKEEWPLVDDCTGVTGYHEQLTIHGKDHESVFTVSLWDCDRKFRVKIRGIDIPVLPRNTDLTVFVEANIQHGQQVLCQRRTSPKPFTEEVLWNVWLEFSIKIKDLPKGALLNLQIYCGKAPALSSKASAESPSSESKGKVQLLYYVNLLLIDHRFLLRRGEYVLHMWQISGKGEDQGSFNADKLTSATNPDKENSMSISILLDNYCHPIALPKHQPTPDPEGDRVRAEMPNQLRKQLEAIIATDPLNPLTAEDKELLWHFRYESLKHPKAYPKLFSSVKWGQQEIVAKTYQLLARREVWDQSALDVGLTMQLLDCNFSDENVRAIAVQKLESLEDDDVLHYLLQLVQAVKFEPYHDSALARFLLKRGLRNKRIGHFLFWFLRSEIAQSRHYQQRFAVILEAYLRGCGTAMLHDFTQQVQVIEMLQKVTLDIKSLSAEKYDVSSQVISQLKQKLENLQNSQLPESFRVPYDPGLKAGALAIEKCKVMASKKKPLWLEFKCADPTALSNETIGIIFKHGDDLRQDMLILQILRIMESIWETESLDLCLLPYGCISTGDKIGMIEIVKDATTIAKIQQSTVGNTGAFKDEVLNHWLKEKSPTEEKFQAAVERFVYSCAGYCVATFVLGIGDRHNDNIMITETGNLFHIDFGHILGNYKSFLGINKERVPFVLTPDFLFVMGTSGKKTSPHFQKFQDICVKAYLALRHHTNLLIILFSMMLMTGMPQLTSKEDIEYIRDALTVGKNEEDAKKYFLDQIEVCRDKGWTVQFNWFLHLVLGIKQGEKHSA

[5] = molecular target: T1, Mitogen-activated protein kinase kinase kinase kinase 2 (Homo sapiens) (UniProt Q12851); assay: Selectivity interaction (KinomeScan (DiscoverX)) EUB0000607a MAP4K2; conditions: at 10 µM
T1 sequence (whole entry): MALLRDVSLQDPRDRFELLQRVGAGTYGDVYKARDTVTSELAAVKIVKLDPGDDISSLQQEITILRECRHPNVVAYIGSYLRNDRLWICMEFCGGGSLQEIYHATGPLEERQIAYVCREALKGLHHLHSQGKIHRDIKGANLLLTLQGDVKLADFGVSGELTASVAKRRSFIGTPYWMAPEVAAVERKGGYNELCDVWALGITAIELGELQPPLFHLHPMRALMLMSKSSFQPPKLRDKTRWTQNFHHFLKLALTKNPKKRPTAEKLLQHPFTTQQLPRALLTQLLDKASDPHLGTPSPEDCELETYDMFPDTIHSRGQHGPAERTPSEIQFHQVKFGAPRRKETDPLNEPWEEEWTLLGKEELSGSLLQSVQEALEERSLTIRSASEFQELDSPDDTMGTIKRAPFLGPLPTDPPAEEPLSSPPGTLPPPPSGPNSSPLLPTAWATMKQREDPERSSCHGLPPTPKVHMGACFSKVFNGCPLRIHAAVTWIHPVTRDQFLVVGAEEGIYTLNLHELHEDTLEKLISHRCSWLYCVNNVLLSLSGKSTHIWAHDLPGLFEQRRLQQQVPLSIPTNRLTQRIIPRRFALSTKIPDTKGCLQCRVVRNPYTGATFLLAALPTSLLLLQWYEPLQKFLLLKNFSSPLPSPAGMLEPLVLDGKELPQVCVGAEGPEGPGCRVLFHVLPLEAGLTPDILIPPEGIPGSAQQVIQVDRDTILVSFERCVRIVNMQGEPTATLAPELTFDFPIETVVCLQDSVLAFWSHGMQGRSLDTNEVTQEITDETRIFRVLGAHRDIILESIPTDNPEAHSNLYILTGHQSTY

[6] = molecular target: T2, Serine/threonine-protein kinase Sgk3 (Homo sapiens) (UniProt Q96BR1); assay: Selectivity interaction (ActivX KiNativ screen (kinase selectivity in THP-1 cell lysates)) EUB0000639a SGK3; assay type: subcellular; conditions: lysate, at 1 µM
T2 sequence (whole entry): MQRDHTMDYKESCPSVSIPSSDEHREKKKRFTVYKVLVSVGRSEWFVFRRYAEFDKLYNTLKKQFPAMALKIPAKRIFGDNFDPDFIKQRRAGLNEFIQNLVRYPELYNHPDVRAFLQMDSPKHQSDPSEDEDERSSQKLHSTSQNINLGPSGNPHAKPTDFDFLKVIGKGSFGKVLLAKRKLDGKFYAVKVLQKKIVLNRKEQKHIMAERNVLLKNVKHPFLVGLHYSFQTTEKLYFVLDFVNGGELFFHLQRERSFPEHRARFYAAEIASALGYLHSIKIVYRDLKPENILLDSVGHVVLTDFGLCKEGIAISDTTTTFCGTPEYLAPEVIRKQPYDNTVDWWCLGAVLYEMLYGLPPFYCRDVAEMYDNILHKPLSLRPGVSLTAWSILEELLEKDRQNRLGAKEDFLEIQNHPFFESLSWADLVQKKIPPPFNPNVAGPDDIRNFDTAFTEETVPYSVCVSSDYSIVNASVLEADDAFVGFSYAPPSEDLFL

[7] = molecular target: Histone-lysine N-methyltransferase KMT5C (Homo sapiens) (UniProt Q86Y97); assay: Selectivity interaction (Methyltransferase screen (radiometric assays, panel of 8 PRMTs, 21 protein lysine methyltransferases, 3 DNA methyltransferases, and one RNA methyltransferase)) EUB0000271b SUV420H2
Chain of Histone-lysine N-methyltransferase KMT5C (Homo sapiens) (Q86Y97 whole entry, looked up): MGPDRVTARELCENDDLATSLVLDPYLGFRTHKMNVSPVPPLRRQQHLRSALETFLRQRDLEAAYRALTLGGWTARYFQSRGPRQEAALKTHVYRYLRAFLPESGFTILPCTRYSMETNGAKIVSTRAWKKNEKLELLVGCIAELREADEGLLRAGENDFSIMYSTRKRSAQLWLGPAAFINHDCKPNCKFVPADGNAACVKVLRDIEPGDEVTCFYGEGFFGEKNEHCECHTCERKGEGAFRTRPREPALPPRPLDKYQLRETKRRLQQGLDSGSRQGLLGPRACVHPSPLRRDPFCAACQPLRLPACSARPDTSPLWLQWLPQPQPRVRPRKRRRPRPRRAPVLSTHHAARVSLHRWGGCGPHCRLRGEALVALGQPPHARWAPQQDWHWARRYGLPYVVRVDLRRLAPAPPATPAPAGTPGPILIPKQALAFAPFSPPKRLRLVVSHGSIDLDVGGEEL

[8] = molecular target: Ephrin type-A receptor 2 (Homo sapiens) (UniProt P29317); assay: Selectivity interaction (Ambit KINOMEscan and KiNATiv profiling in Jurkat cells) EUB0000090b EPHA2; assay type: cell-based; conditions: at 1 µM
Chain of Ephrin type-A receptor 2 (Homo sapiens) (P29317 whole entry): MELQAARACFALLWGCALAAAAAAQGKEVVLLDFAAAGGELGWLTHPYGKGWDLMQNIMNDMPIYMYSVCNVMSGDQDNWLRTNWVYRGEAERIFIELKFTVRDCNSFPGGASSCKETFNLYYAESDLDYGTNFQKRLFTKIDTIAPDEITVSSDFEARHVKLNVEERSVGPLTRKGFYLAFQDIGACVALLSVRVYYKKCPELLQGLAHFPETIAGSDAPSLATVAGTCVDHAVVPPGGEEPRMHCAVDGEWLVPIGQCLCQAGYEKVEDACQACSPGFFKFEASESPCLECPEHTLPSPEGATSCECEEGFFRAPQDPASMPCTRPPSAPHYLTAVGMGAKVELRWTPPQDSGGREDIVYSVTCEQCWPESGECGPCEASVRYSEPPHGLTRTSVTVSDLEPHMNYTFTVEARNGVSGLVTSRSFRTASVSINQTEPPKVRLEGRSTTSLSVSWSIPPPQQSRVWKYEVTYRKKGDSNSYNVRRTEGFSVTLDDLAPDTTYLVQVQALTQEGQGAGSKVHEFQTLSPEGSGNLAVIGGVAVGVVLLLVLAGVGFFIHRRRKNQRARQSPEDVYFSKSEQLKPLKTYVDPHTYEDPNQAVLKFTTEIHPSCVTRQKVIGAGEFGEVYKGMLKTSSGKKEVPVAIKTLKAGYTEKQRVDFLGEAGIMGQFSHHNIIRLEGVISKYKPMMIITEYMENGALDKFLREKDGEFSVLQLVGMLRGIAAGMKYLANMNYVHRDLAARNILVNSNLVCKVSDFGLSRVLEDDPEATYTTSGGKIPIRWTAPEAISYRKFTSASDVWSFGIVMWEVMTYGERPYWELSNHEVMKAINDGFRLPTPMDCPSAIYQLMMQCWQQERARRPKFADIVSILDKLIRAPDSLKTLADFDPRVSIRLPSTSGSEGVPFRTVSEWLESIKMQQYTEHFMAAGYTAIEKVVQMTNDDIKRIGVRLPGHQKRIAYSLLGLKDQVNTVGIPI

[9] = molecular target: Serine/threonine-protein kinase 32C (Homo sapiens) (UniProt Q86UX6); assay: Selectivity interaction (KinomeScan (DiscoverX)) EUB0001079a STK32C; conditions: at 1 µM
Chain of Serine/threonine-protein kinase 32C (Homo sapiens) (Q86UX6 whole entry): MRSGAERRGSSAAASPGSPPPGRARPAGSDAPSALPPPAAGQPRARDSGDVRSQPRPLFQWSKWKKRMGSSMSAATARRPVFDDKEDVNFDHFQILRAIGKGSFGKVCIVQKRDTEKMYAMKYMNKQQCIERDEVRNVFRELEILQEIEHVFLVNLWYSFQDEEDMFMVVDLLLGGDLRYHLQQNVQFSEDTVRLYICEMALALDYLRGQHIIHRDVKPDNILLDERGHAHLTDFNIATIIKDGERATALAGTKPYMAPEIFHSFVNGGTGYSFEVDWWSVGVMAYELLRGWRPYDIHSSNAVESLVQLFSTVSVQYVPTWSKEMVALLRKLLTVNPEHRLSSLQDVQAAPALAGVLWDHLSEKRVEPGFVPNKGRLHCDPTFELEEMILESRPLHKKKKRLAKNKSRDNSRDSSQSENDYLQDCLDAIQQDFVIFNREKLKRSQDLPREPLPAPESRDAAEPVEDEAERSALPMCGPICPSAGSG

[10] = molecular target: T3, Mitogen-activated protein kinase kinase kinase 13 (Homo sapiens) (UniProt O43283); conditions: at 10 µM
T3 sequence (whole entry): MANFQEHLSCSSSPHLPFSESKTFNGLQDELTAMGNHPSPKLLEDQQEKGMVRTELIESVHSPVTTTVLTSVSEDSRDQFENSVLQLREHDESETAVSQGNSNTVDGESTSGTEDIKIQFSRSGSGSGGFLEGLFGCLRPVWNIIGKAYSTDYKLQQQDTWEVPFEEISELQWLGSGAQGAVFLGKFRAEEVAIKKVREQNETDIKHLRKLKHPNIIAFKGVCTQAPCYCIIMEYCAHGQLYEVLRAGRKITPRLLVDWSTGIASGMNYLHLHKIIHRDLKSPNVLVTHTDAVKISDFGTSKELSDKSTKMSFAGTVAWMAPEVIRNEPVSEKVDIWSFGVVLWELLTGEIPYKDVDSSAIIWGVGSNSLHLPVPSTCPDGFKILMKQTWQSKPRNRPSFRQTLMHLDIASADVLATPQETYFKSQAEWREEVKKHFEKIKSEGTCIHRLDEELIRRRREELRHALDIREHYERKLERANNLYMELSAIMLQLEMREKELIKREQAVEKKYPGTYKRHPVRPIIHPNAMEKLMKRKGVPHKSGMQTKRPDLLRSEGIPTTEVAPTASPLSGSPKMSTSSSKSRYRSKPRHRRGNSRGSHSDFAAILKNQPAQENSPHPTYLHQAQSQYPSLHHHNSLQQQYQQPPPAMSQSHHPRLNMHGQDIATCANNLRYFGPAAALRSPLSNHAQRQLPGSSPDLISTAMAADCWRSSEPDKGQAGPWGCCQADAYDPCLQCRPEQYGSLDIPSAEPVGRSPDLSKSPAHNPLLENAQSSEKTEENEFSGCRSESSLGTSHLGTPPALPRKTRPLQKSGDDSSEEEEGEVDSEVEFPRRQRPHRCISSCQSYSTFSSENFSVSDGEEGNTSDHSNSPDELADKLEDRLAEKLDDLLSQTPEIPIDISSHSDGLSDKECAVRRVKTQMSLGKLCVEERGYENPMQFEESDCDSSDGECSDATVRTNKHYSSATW

Chain of Sodium channel protein type 2 subunit alpha (Homo sapiens) (Q99250 whole entry, looked up): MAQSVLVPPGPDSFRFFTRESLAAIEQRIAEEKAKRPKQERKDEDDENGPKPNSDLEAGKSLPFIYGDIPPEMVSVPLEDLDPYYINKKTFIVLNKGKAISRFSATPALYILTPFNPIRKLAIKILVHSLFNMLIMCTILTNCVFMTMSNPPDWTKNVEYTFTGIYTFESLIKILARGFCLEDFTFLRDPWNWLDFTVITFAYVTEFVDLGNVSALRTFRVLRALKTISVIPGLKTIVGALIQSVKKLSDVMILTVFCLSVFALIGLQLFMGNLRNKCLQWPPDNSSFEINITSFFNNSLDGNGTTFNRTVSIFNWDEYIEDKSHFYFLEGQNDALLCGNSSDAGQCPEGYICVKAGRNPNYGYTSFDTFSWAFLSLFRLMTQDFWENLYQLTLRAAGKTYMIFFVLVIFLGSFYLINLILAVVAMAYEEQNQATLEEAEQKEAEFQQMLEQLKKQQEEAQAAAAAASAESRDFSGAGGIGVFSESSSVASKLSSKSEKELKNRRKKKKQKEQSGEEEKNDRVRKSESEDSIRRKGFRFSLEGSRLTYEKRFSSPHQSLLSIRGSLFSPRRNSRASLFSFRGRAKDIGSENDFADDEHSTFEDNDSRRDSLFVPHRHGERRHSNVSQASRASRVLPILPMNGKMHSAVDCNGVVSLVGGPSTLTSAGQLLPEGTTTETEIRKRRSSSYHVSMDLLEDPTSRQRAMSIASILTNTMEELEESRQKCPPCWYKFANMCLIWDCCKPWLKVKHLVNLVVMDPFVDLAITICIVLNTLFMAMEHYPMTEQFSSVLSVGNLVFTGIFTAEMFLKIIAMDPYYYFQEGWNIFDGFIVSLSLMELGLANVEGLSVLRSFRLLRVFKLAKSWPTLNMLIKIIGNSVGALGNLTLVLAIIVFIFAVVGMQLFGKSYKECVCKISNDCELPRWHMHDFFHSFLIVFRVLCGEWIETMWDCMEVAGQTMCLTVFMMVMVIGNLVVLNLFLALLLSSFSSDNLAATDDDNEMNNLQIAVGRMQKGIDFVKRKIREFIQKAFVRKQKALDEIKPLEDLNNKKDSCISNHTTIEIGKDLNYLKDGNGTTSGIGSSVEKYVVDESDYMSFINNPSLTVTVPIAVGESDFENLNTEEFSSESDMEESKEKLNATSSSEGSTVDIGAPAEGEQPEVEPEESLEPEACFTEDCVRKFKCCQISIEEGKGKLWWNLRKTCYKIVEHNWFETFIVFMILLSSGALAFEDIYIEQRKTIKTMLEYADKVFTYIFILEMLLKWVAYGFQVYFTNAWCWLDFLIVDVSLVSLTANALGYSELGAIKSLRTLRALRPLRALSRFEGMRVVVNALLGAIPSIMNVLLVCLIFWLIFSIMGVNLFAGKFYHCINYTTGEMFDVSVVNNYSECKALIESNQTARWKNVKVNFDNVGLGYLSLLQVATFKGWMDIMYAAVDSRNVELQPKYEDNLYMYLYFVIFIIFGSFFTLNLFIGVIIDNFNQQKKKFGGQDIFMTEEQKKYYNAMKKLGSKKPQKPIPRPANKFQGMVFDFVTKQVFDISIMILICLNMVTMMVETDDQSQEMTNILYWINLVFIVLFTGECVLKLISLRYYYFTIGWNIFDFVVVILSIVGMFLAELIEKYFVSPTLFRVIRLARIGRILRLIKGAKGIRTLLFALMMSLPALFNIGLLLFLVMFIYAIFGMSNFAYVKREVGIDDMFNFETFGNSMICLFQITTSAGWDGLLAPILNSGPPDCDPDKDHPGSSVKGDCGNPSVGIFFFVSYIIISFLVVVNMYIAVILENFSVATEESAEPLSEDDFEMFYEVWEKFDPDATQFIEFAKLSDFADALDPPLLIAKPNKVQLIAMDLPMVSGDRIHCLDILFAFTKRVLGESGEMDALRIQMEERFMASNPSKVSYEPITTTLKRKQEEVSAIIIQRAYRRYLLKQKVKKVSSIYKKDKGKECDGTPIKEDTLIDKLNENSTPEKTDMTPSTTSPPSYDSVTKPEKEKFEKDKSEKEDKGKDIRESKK

- % of control [1]: 100%
SMILES: CC(=O)c1cc(-c2ccccc2OCC2CC2)c2ncccn12

SMILES: O=C(NOC[C@H](O)CO)c1ccc(F)c(F)c1Nc1ccc(I)cc1F
- % of control [2]: 84%
- % of control [3]: 93%

- % of inhibition [4]: -10%
SMILES: CN1Cc2nccc(-c3cn(C)nc3-c3ccc(F)cc3)c2C1=O

SMILES: CNC(=O)Nc1ccc(-c2nc(N3CC4CCC(C3)O4)c3cnn(C4CCC5(CC4)OCCO5)c3n2)cc1
- % of control [5]: 100%

- % of inhibition [6]: -1%
SMILES: CC[C@@H]1[C@H](F)C(=O)N[C@@H]1COc1nccc2cc(C(N)=O)c(OC)cc12 [ZIMLOVISERTIB]

SMILES: Cc1cc(C)cc([C@@H]2c3cc(C)ccc3NC(=O)CN2C(=O)c2ccc(Br)s2)c1
- % of activity ([7]; at 1 µM): 102%
- % of activity ([7]; at 10 µM): 102%

SMILES: CN(C)C/C=C/C(=O)Nc1ccc(C(=O)N2CCCC(Nc3ncc(Cl)c(-c4c[nH]c5ccccc45)n3)C2)cc1 (stereo unspecified)
- % of control [8]: 98%

SMILES: Nc1cnc(N2CCc3cc(S(=O)(=O)Nc4c(F)cc(Cl)cc4F)cc(N4CCCC4=O)c32)nc1 [TP-020n]
- % of control [9]: 100%

SMILES: Cc1cc([C@@H](C)Nc2ccccc2C(=O)O)c2nc(N3CCOCC3)cc(=O)n2c1 [AZD-6482]
- % of control [10]: 100%
